Results reported in publication PMC7274485, “A symbiotic bacterium of shipworms produces a compound with broad spectrum anti-apicomplexan activity” (PLoS Pathogens, 2020).
pEC50: −log10 of the molar value.

What was measured:
[1] = test system: extracellular T. gondii tachyzoites; test: Extracellular T. gondii tachyzoites treated 2 hours, washed, then infection of HFF quantified by luciferase; assay type: cell-based, Toxoplasma gondii
Method: Because we had tested the compound against intracellular parasites, it was unclear if trtE was exerting a direct effect on the parasites, or if trtE acted indirectly on the parasites by modulating host cell pathways. […] Growth of the parasites was measured 24 hours later by luciferase expression.
To determine the direct effect of trtE on T. gondii, RH GFP/Luc tachyzoites that had exited from host cells were combined with trtE at varying concentrations and incubated at 37°C and 5% CO2 for 2 hours. Tachyzoites in 0.01% DMSO were run in parallel. The parasites were washed to remove compound and added to 96-well plates containing confluent HFFs. Growth was monitored 24 hours later using Bright-glo Luciferase assay system (Promega). Percent inhibition was calculated as ((luciferase reading DMSO treated parasites—luciferase reading of trtE treated parasites)/ luciferase reading DMSO treated parasites)*100.

[2] = test system: T. gondii ME49; test: Length of treatment needed to kill intracellular T. gondii (compound wash-off, luciferase 72 hours later); assay type: cell-based, Toxoplasma gondii; settings: 30 nM trtE, ME49 in HFF, treated 0.5 to 4 hours, washed off, growth 72 hours after treatment
Method: To test this hypothesis, we infected HFF cells with luciferase-expressing T. gondii ME49 for 24 hours, then treated infected cells with trtE for 30 minutes to 4 hours. The compound was then washed off the infected cells, and parasite growth was quantified 3 days after the removal of the compound. Parasites treated for at least 2 hours were killed by trtE (Fig 2E).
T. gondii parasite lines were maintained by passage in HFFs as previously described. To determine the effect of trtE on intracellular parasites, 96 well plates containing confluent HFFs were infected with T. gondii strain ME49 modified to express green fluorescent protein (GFP) and luciferase (Luc), generated as described or T. gondii RH strain GFP/Luc (a kind gift from Dr. Jeroen Saeij, UC Davis). […] Growth was monitored by luciferase expression using Bright-glo Luciferase assay system (Promega Corp., Madison, WI). To determine the length of treatment needed to kill intracellular parasites, trtE was added to infected cells and then the compound removed 0.5, 1, 2 and 4 hours later by washing the monolayer three times with complete media. Infected cells were then incubated for 72 hours before growth was quantified by luciferase expression. For time-lapse images, HFFs were seeded into 35 mm glass bottom microwell dishes (MatTek Corporation, Ashland, MA). […]

[3] = test system: B. bovis; test: Immunofluorescence assay of B. bovis CE11/p2xHA-glmS-gfp-bsd infected erythrocytes; assay type: cell-based, Babesia bovis; settings: 50 nM trtE, 24 hours
Method: To evaluate the morphological changes in one of the intraerythrocytic parasites, B. bovis CE11/p2xHA-glmS-gfp-bsd parasites were exposed to 50 nM trtE or DMSO for 24 hours then fixed and processed for IFA. This B. bovis line expresses a soluble green fluorescent protein-blasticidin deaminase fusion protein (gfp-bsd),that was labeled with anti-GFP antibodies to visualize the parasite cytoplasm (Fig 3E, green fluorescence). […] Mis-localization of both the soluble gfp-bsd fusion protein (green label) and the RAP-1 protein (red label) was also observed. […]
For all IFAs, the investigator reading the slides and collecting images was blind to the sample treatment. […] 24 hours post treatment, infected cells were fixed with methanol, and parasites detected with rabbit anti-SAG1 antibody for T. gondii or rabbit anti-gp15 for C. parvum as we have described previously. […] This CE11 line is transiently transfected with a plasmid that expresses nanoluciferase from a B. divergens promoter and green fluorescence protein-blasticidin (gfp-bsd) from the selection cassette. […] Cells were incubated with rabbit anti-GFP (GenScript; Piscataway, NJ; cat. #A01388) and mouse monoclonal MBOC79B1 (a gift from G. Palmer) anti-BbRAP-1 protein antibodies, and reactions detected with goat anti-rabbit IgG-Alexafluor 488 and goat anti-mouse IgG-Alexafluor 594 antibodies (Invitrogen; Carlsbad, CA). […]

[4] = test system: Toxoplasma gondii bradyzoites; test: Very preliminary study against T. gondii bradyzoites; assay type: cell-based; settings: close to the level of toxicity for the host cells
[5] = test system: HCT-8 colonic cancer cells
Method: (§1) Toxicity was evaluated by measuring cellular ATP concentrations.
(§2) HCT8, HFF and BT cells were seeded in 96-well plates to achieve 20–30% confluence after 24 hours of growth.

[6] = test system: Gram negative bacteria; settings: at μM concentrations; cited from earlier work
[7] = test system: Bovine turbinate cells; test: Cytotoxicity for host cells, cellular ATP (CellTiter-Glo): BT cells
Method: as §1, §2

[8] = 20–30% confluency, 24 hours, cellular ATP

## CC1CCC=CC=CCCC(O)CC(=O)CC2CCC(C)C3(O2)O[B-]24OC(C(=O)O1)C1(OC(CCC1C)CC(=O)CC(O)CCC=CC=CCCC(C)OC(=O)C3O2)O4 (stereo not shown) [trtE, tartrolon E]
[1]; Toxoplasma gondii, RH strain tachyzoites treated 2 hours, washed, growth in HFF after 24 hours, read-out: EC50 against extracellular T. gondii tachyzoites
  pEC50: 8.51
[1]; addition of excess K+ ions, no positive control
  Effect of excess K+ ions on trtE activity against extracellular tachyzoites: had no effect
[2]
  Length of trtE treatment after which parasites were killed: kills the parasites after two hours of treatment
[3]
  Morphology of trtE treated B. bovis (IFA): distinctly rounded morphology
[4]
  Concentration at which trtE was effective against bradyzoites: ~ 1 µM
[5]; [8]
  TC50 (median toxic concentration) for HCT-8: 6.3 µM
[5]; TC50/EC50
  Selectivity Index, C. parvum vs HCT-8: 1636
[6]
  Activity of trtE against Gram negative bacteria: active
[7]; [8]
  TC50 (median toxic concentration) for BT cells: 16.8 µM
[7]; TC50/EC50
  Selectivity Index, S. neurona vs Bovine turbinate cells: 1302
